Article PMC11466185, “Mechanisms and efficacy of small molecule latency-promoting agents to inhibit HIV reactivation ex vivo” (JCI Insight, 2024)
Entries after “also recorded” stand apart in the source; their conditions may differ.

System: PolyA HIV RNA in the supernatant
Assay: Supernatant viral RNA (polyadenylated HIV RNA, RT-ddPCR) at day 6 after T cell activation
Type: cell-based
Conditions: for Viral RNA in supernatant (PolyA HIV RNA), median relative to activated DMSO: day 6 after anti-CD3/CD28 activation, Figure 5; for Polyadenylated HIV RNA in supernatant (Fig 5) / Polyadenylated HIV RNA in supernatant (Fig 5, Fig S6B): day 6
Method: PBMCs were cultured in the presence of individual drugs in DMSO or DMSO alone as control, activated (anti-CD3/CD28), and assessed for levels of PolyA HIV RNA in the supernatant at day 6.
Each drug was tested in PBMCs from 6 ART-suppressed study participants (except for triptolide, n = 5). PBMCs were aliquoted into wells at 6 × 10^6 cells/well. After activation, the cells were cultured with antiretrovirals in the presence of individual drugs in DMSO or DMSO alone as control. All conditions were tested in the presence of CD3/28 T cell–activating beads, except for the unactivated DMSO condition. After 6 days, RNA was extracted from the culture supernatant. Polyadenylated HIV RNA in the supernatant was quantified by RT-ddPCR, expressed as copies/mL, and then normalized to the levels of the activated DMSO (% of activated DMSO). Medians and IQR are presented, as well as the individual values per study participant in different colors. Comparisons were performed using Wilcoxon’s signed-rank test.
For quantification of cell-associated HIV transcripts, PBMCs were harvested either after 24 hours or after 6 days. The cell viabilities were measured by trypan blue staining; then the cells were pelleted by centrifuging at 300g for 6 minutes and stored at –80°C. For quantification of virion-associated HIV RNA, cell culture supernatant was collected from 6 × 10^6 PBMCs that were treated and activated for 6 days as described above. Residual cells and cellular debris were subsequently removed from the supernatant by differential centrifugation (300g for 6 minutes, then 20,000g for 10 minutes), and the supernatant was stored at –80°C.
Total cellular DNA and RNA were extracted in parallel using Trireagent (Molecular Research Center) according to the manufacturer’s instructions, except for study participants 2147 and 2461 (Figure 4), for whom DNA and RNA were extracted using the QIAGEN AllPrep DNA/RNA/miRNA Universal Kit with on-column DNase I treatment of the RNA and the manufacturer’s modification to enhance recovery of short transcripts. RNA and DNA concentrations were measured using UV spectrophotometry (NanoDrop One, Thermo Fisher Scientific). Total initiated HIV (TAR) transcripts were quantified by a 3-step polyadenylation RT-ddPCR as described previously ([8], [84]). HIV 5′ elongated (LLTR), midtranscribed (Pol), completed (PolyA), and multiply spliced (TatRev) transcripts were quantified by a 2-step RT-ddPCR as previously described ([8]). The levels of each HIV transcript were normalized to 1 μg of total cellular RNA and expressed as a percentage of the (activated) DMSO control. To quantify virion-associated RNA in supernatant, RNA was extracted from 400 μL supernatant using Trireagent-LS (Molecular Research Center) according to the manufacturer’s instructions. Levels of U3-polyadenylated HIV RNA were measured in the supernatant by RT-ddPCR, normalized to copies/mL, and expressed as a percentage of the activated DMSO. For measuring the HIV infection frequency at day 6, the HIV DNA U3-U5 LTR region was quantified by using ddPCR as described previously ([8]). HIV DNA copies were normalized to cell numbers according to the mass of DNA input per well (calculated from the DNA concentration and input volume) ([85]).

Molecule	Viral RNA in supernatant (PolyA HIV RNA), median relative to activated DMSO	Polyadenylated HIV RNA in supernatant (Fig 5) (study participant 150a)	Polyadenylated HIV RNA in supernatant (Fig 5) (study participant 156)	Polyadenylated HIV RNA in supernatant (Fig 5) (study participant 163)	Polyadenylated HIV RNA in supernatant (Fig 5) (study participant 2027)	Polyadenylated HIV RNA in supernatant (Fig 5) (study participant 2147b)	Polyadenylated HIV RNA in supernatant (Fig 5) (study participant 2161)	Polyadenylated HIV RNA in supernatant (Fig 5) (study participant 2747)	Polyadenylated HIV RNA in supernatant (Fig 5) (study participant 2750)	Polyadenylated HIV RNA in supernatant (Fig 5) (study participant 2256)	Polyadenylated HIV RNA in supernatant (Fig 5, Fig S6B) (study participant 150b)	Polyadenylated HIV RNA in supernatant (Fig 5) (study participant 5557)	Polyadenylated HIV RNA in supernatant (Fig 5, Fig S6B) (study participant 1713)
CC(=O)N[C@@H]1CCC[C@H](C(=O)Nc2cc(-c3cnn4c3CC(C)(C)C4)c(Cl)cn2)C1 [AZD4573]	1.9%	27.84 % of activated DMSO	3.19 % of activated DMSO	90.51 % of activated DMSO	0 % of activated DMSO	0.7 % of activated DMSO	0 % of activated DMSO	17.73 % of activated DMSO	0 % of activated DMSO	–	–	–	–
CNc1ccc([N+](=O)[O-])c(Nc2ccc3[nH]ncc3c2)n1 [KRIBB11]	did not inhibit	72.41 % of activated DMSO	18.79 % of activated DMSO	90.15 % of activated DMSO	444.44 % of activated DMSO	47.37 % of activated DMSO	–	72.27 % of activated DMSO	–	93.55 % of activated DMSO	–	–	–
CN1CC[C@H](c2c(O)cc(O)c3c(=O)cc(-c4ccccc4Cl)oc23)[C@H](O)C1 [alvocidib]	–	–	–	–	504.5 % of activated DMSO	0 % of activated DMSO	41.86 % of activated DMSO	–	–	81.72 % of activated DMSO	81.21 % of activated DMSO	155.63 % of activated DMSO	–
CCc1cnn2c(NCc3ccc[n+]([O-])c3)cc(N3CCCC[C@H]3CCO)nc12 [dinaciclib]	–	–	0 % of activated DMSO	133.94 % of activated DMSO	0 % of activated DMSO	0 % of activated DMSO	4.65 % of activated DMSO	23.64 % of activated DMSO	–	–	11.52 % of activated DMSO	–	–
CO[C@H]([C@@H](C)[C@H]1O[C@]1(C)C[C@H](C)/C=C/C=C(\C)[C@H]1O[C@@H](CC(=O)O)CC[C@@H]1C)[C@@H](C)O [herboxidiene]	tended to reduce	–	–	–	240.24 % of activated DMSO	0 % of activated DMSO	4.65 % of activated DMSO	–	–	1.61 % of activated DMSO	67.27 % of activated DMSO	42.05 % of activated DMSO	–
COc1ccc(-c2cc(=O)c3c(O)cc(O)c(-c4cc(-c5cc(=O)c6c(O)cc(O)cc6o5)ccc4OC)c3o2)cc1 [isoginkgetin]	–	–	–	–	8.41 % of activated DMSO	63.16 % of activated DMSO	0 % of activated DMSO	–	–	4.84 % of activated DMSO	303.03 % of activated DMSO	39.4 % of activated DMSO	–
O=c1c(O)c(-c2ccc(O)c(O)c2)oc2cc(O)cc(O)c12 [quercetin]	–	–	–	85.4 % of activated DMSO	20.42 % of activated DMSO	8.6 % of activated DMSO	4.65 % of activated DMSO	9.09 % of activated DMSO	–	134.41 % of activated DMSO	315.15 % of activated DMSO	–	–
N#CC[C@H](C1CCCC1)n1cc(-c2ncnc3[nH]ccc23)cn1 [ruxolitinib]	–	6.55 % of activated DMSO	0 % of activated DMSO	0.53 % of activated DMSO	0 % of activated DMSO	0 % of activated DMSO	5.81 % of activated DMSO	0 % of activated DMSO	0 % of activated DMSO	–	–	–	–
C=CCNC1=C2C[C@@H](C)C[C@H](OC)[C@H](O)[C@@H](C)/C=C(\C)[C@H](OC(N)=O)[C@@H](OC)/C=C\C=C(/C)C(=O)NC(=CC1=O)C2=O [tanespimycin]	–	–	–	–	–	0 % of activated DMSO	–	–	0 % of activated DMSO	2.15 % of activated DMSO	0 % of activated DMSO	0 % of activated DMSO	0 % of activated DMSO
CC(C)[C@]12O[C@H]1[C@@H]1O[C@]13[C@]1(O[C@H]1C[C@H]1C4=C(CC[C@@]13C)C(=O)OC4)[C@@H]2O [triptolide]	0.0%	–	–	–	–	0 % of activated DMSO	–	–	0 % of activated DMSO	2.15 % of activated DMSO	0 % of activated DMSO	0 % of activated DMSO	–
mithramycin A	tended to reduce; also recorded: inhibited the production of viral RNA in supernatant in 5 out of 6 study participants	–	–	–	–	0 % of activated DMSO	–	–	–	2.15 % of activated DMSO	2.42 % of activated DMSO	0 % of activated DMSO	2.06 % of activated DMSO
pladienolide B	3.8%	17.33 % of activated DMSO	7.61 % of activated DMSO	15.15 % of activated DMSO	63.66 % of activated DMSO	0 % of activated DMSO	0 % of activated DMSO	0 % of activated DMSO	0 % of activated DMSO	–	–	–	–
